Source: PubChem BioAssay AID1963448 (Molecular Pharmacology Branch, DTP, NCI, 2024)
pIC50: −log10 of the molar value.

System: 616215-338-R-J1-PDC complex spheroid growth, % test/control
Assay: Anticancer human tumor 616215-338-R-J1-PDC patient-derived colon adenocarcinoma cell line growth inhibition [Asc]
Details: for pIC50: curve of first compound; for viability, T/C: stronger effect = lower value
Outline: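 Stromal components (HUVEC and hMSC) are co-assembled with the cancer cells into multicellular spheroids. Drugs are then added singly or paired, at concentrations falling by half-log increments from a clinically achievable maximum, capped at 10 microM without known Cmax.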
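Also: spheroids exposed to agents for seven days before readout.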
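For viability, T/C in this document: 100% = DMSO vehicle control viability.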

C=CC(=O)N1CCN(c2nc(=O)n(-c3c(C)ccnc3C(C)C)c3nc(-c4c(O)cccc4F)c(F)cc23)C(C)C1 (configuration not stated) + CNC(C)C(=O)NC1CN(S(=O)(=O)c2cccc(S(=O)(=O)N3CCC4CCC(C(=O)NC(c5ccccc5)c5ccccc5)N4C(=O)C(NC(=O)C(C)NC)C3)c2)CCC2CCC(C(=O)NC(c3ccccc3)c3ccccc3)N2C1=O
pIC50 (second compound 0.00316 µM): 5.37 | pIC50 (second compound 0.01 µM): 5.57 | pIC50 (second compound 0.0316 µM): 5.37 | pIC50 (second compound 0.1 µM): 5.48 | pIC50 (second compound 0.316 µM): 5.65 | pIC50 (second compound 1 µM): 5.49 | viability, T/C (second compound 0.00316 µM, first compound 0.0316 µM): 109% | viability, T/C (second compound 0.00316 µM, first compound 0.1 µM): 99.2% | viability, T/C (second compound 0.00316 µM, first compound 0.316 µM): 88% | viability, T/C (second compound 0.00316 µM, first compound 1 µM): 78.2% | viability, T/C (second compound 0.00316 µM, first compound 3.16 µM): 58% | viability, T/C (second compound 0.00316 µM, first compound 10 µM): 29.4% | viability, T/C (second compound 0.01 µM, first compound 0.0316 µM): 110% | viability, T/C (second compound 0.01 µM, first compound 0.1 µM): 93.2% | viability, T/C (second compound 0.01 µM, first compound 0.316 µM): 95.5% | viability, T/C (second compound 0.01 µM, first compound 1 µM): 66.7% | viability, T/C (second compound 0.01 µM, first compound 3.16 µM): 47.3% | viability, T/C (second compound 0.01 µM, first compound 10 µM): 27.8% | viability, T/C (second compound 0.0316 µM, first compound 0.0316 µM): 106% | viability, T/C (second compound 0.0316 µM, first compound 0.1 µM): 101% | viability, T/C (second compound 0.0316 µM, first compound 0.316 µM): 96% | viability, T/C (second compound 0.0316 µM, first compound 1 µM): 76.9% | viability, T/C (second compound 0.0316 µM, first compound 3.16 µM): 58.1% | viability, T/C (second compound 0.0316 µM, first compound 10 µM): 29.2% | viability, T/C (second compound 0.1 µM, first compound 0.0316 µM): 95.8% | viability, T/C (second compound 0.1 µM, first compound 0.1 µM): 101% | viability, T/C (second compound 0.1 µM, first compound 0.316 µM): 81.5% | viability, T/C (second compound 0.1 µM, first compound 1 µM): 81.1% | viability, T/C (second compound 0.1 µM, first compound 3.16 µM): 48.6% | viability, T/C (second compound 0.1 µM, first compound 10 µM): 28.8% | viability, T/C (second compound 0.316 µM, first compound 0.0316 µM): 92.6% | viability, T/C (second compound 0.316 µM, first compound 0.1 µM): 105% | viability, T/C (second compound 0.316 µM, first compound 0.316 µM): 104% | viability, T/C (second compound 0.316 µM, first compound 1 µM): 61.8% | viability, T/C (second compound 0.316 µM, first compound 3.16 µM): 53% | viability, T/C (second compound 0.316 µM, first compound 10 µM): 36.4% | viability, T/C (second compound 1 µM, first compound 0.0316 µM): 104% | viability, T/C (second compound 1 µM, first compound 0.1 µM): 100% | viability, T/C (second compound 1 µM, first compound 0.316 µM): 100% | viability, T/C (second compound 1 µM, first compound 1 µM): 68.6% | viability, T/C (second compound 1 µM, first compound 3.16 µM): 54.6% | viability, T/C (second compound 1 µM, first compound 10 µM): 28.9%
